Activity calls are given as the source filed them. The calls are words filed in the database; no cut-off is given here.
Tested on: not listed separately
Test: Aqueous solubility of the compound […] at room temperature by UV-vis spectrophotometric analysis
Type: physicochemical
Settings: not given

| Structure (SMILES) | solubility |
| --- | --- |
| Oc1cccn(CCCCCCCn2cc(-c3ccccc3)nn2)c1=S | soluble |
| Cc1ccccc1-c1cn(CCCCCn2cccc(O)c2=S)nn1 | soluble |

Molecular target: T1, Protein deacetylase HDAC6 (Homo sapiens) (UniProt Q9UBN7)
T1 sequence (whole entry): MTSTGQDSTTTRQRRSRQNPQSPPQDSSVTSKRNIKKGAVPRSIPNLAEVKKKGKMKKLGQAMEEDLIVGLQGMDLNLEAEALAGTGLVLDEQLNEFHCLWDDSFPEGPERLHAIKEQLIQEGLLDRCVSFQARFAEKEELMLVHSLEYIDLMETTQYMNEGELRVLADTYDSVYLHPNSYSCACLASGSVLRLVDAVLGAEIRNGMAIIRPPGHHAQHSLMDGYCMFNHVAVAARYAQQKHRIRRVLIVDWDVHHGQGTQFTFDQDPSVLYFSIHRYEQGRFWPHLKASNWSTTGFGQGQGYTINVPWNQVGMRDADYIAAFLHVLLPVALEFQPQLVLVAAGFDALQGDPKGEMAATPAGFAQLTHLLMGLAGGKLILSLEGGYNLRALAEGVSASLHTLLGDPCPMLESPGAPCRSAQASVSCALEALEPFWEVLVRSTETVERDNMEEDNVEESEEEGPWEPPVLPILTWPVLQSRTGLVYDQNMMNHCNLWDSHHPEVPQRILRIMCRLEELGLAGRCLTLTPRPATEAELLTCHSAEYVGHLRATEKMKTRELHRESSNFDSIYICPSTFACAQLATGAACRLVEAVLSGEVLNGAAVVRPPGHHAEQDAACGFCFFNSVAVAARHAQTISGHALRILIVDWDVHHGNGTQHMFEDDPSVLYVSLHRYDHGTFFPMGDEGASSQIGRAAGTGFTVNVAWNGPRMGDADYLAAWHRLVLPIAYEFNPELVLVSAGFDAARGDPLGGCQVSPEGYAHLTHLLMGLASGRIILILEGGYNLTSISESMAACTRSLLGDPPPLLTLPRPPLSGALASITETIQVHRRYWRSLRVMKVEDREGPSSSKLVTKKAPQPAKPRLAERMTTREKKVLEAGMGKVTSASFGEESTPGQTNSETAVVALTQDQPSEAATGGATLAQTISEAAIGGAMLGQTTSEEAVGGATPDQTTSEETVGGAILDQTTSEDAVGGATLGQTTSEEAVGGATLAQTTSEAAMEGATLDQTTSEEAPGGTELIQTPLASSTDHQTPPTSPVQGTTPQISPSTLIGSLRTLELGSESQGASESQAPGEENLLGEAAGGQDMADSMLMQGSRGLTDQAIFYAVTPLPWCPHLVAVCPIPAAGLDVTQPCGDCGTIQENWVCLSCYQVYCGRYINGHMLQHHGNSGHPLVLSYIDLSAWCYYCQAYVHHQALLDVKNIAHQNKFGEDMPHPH
Test: Inhibition of HDAC6 (unknown origin) expressed in Escherichia coli BL21 (DE3) using GRKacYGC as substrate at 10 nM to 1 mM after 60 mins by SAMDI mass spectrometric analysis
Settings: not given

| Structure (SMILES) | inhibition |
| --- | --- |
| Cc1ccc(-c2cn(CCCCCn3cccc(O)c3=O)nn2)cc1 | inactive |
| N#Cc1ccc(-c2cn(CCCCCn3cccc(O)c3=O)nn2)cc1C(F)(F)F | inactive |
| O=c1c(O)cccn1CCCn1cc(-c2ccccc2)nn1 | inactive |
| O=c1c(O)cccn1CCn1cc(-c2ccccc2)nn1 | inactive |
| CN(C)c1ccc(-c2cn(CCCCCn3cccc(O)c3=O)nn2)cc1 | inactive |
| O=c1c(O)cccn1CCCCCn1cc(-c2ccccc2)nn1 | inactive |
| O=c1c(O)cccn1CCCCCCn1cc(-c2ccccc2)nn1 | inactive |
| O=c1c(O)cccn1CCCCn1cc(-c2ccccc2)nn1 | inactive |
| N#Cc1ccc(-c2cn(CCCCCn3cccc(O)c3=O)nn2)cc1 | inactive |

The next lines start with the values.

| inhibition | Structure (SMILES) |
| --- | --- |
| inactive | N#Cc1cccc(-c2cn(CCCCCn3cccc(O)c3=O)nn2)c1 |
| inactive | Cc1cccc(-c2cn(CCCCCn3cccc(O)c3=O)nn2)c1 |
| inactive | Cc1ccccc1-c1cn(CCCCCn2cccc(O)c2=O)nn1 |
| inactive | O=c1c(O)cccn1CCCCCCCn1cc(-c2ccccc2)nn1 |

Tested on: not listed separately
Test: Cytotoxicity against human Jurkat gamma1 cells assessed as growth inhibition after 72 hrs by MTS assay
Type: functional, cell-based
Settings: not given

| Structure (SMILES) | IC50 [µM] |
| --- | --- |
| Oc1cccn(CCCCCCCn2cc(-c3ccccc3)nn2)c1=S | > 20 |

Molecular target: T1, Protein deacetylase HDAC6 (Homo sapiens)
Test: Inhibition of HDAC6 (unknown origin) expressed in Escherichia coli BL21 (DE3) using GRKacYGC as substrate at 10 uM after 60 mins by SAMDI mass spectrometric analysis relative to control
Settings: not given

| Structure (SMILES) | inhibition [%] |
| --- | --- |
| Oc1cccn(CCCCCCn2cc(-c3ccccc3)nn2)c1=S | 22 |
| Oc1cccn(Cc2cn(-c3ccccc3)nn2)c1=S | 41 |
| Oc1cccn(CCn2cc(-c3ccccc3)nn2)c1=S | 14 |

Molecular target: Histone deacetylase 1 (Homo sapiens) (UniProt Q13547)
Test: Inhibition of HDAC1 (unknown origin) expressed in Escherichia coli BL21 (DE3) using GRKacFGC as substrate at 10 uM after 60 mins by SAMDI mass spectrometric analysis relative to control
Settings: not given

Sequence of Histone deacetylase 1 (Homo sapiens) (Q13547 whole entry): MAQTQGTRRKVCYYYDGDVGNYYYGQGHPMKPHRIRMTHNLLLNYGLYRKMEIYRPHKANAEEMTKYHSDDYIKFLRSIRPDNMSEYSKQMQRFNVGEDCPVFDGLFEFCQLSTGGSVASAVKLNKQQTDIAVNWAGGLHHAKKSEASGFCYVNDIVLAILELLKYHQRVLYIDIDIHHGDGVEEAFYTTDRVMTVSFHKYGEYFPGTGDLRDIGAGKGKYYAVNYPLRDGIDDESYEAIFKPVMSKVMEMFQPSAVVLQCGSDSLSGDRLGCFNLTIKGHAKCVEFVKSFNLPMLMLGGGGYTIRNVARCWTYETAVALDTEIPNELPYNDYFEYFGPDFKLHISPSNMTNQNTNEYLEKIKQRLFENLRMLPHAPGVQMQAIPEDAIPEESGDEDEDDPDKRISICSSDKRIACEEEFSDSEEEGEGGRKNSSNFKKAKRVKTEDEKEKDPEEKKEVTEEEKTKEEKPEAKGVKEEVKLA

| Structure (SMILES) | inhibition [%] |
| --- | --- |
| Oc1cccn(CCCCCCn2cc(-c3ccccc3)nn2)c1=S | < 20 |
| Cc1ccc(-c2cn(CCCCCn3cccc(O)c3=S)nn2)cc1 | < 20 |
| Oc1cccn(Cc2cn(-c3ccccc3)nn2)c1=S | < 20 |
| Cc1cccc(-c2cn(CCCCCn3cccc(O)c3=S)nn2)c1 | < 20 |
| Cc1ccccc1-c1cn(CCCCCn2cccc(O)c2=S)nn1 | < 20 |
| Oc1cccn(CCCCn2cc(-c3ccccc3)nn2)c1=S | < 20 |
| N#Cc1ccc(-c2cn(CCCCCn3cccc(O)c3=S)nn2)cc1 | < 20 |
| Oc1cccn(CCn2cc(-c3ccccc3)nn2)c1=S | < 20 |

The remaining lines, values ahead:

| inhibition [%] | Structure (SMILES) |
| --- | --- |
| < 20 | Oc1cccn(CCCCCCCn2cc(-c3ccccc3)nn2)c1=S |
| < 20 | N#Cc1ccc(-c2cn(CCCCCn3cccc(O)c3=S)nn2)cc1C(F)(F)F |
| < 20 | CN(C)c1ccc(-c2cn(CCCCCn3cccc(O)c3=S)nn2)cc1 |
| < 20 | Oc1cccn(CCCn2cc(-c3ccccc3)nn2)c1=S |

Tested on: Vero
Test: Cytotoxicity against African green monkey Vero cells assessed as growth inhibition after 72 hrs by MTS assay
Type: cell-based
Settings: Chlorocebus sabaeus

| Structure (SMILES) | IC50 [µM] |
| --- | --- |
| CN1CCc2c(c3ccccc3n2Cc2ccc(C(=O)NO)cc2)C1 [TUBASTATIN A] | > 20 |

Molecular target: T2, Protein deacetylase HDAC6 (Homo sapiens, UniProt Q9UBN7)
T2 sequence (Q9UBN7 whole entry): T1 sequence (whole entry)
Test: Inhibition of HDAC6 (unknown origin) expressed in Escherichia coli BL21 (DE3) using GRKacYGC as substrate after 60 mins by SAMDI mass spectrometric analysis
Settings: not given

| Structure (SMILES) | IC50 [µM] |
| --- | --- |
| Cc1ccc(-c2cn(CCCCCn3cccc(O)c3=S)nn2)cc1 | 0.807 |
| Cc1cccc(-c2cn(CCCCCn3cccc(O)c3=S)nn2)c1 | 1.1 |
| Cc1ccccc1-c1cn(CCCCCn2cccc(O)c2=S)nn1 | 0.637 |
| Oc1cccn(CCCCn2cc(-c3ccccc3)nn2)c1=S | 1.08 |

Other lines, results leading:

| IC50 [µM] | Structure (SMILES) |
| --- | --- |
| 0.955 | Oc1cccn(CCCCCCCn2cc(-c3ccccc3)nn2)c1=S |
| 3.63 | Oc1cccn(CCCn2cc(-c3ccccc3)nn2)c1=S |

Molecular target: Histone deacetylase 1 (Homo sapiens) (UniProt Q13547)
Test: Inhibition of HDAC1 (unknown origin) expressed in Escherichia coli BL21 (DE3) using GRKacFGC as substrate at 10 nM to 1 mM after 60 mins by SAMDI mass spectrometric analysis
Settings: not given

| Structure (SMILES) | inhibition |
| --- | --- |
| Cc1ccc(-c2cn(CCCCCn3cccc(O)c3=O)nn2)cc1 | inactive |
| N#Cc1ccc(-c2cn(CCCCCn3cccc(O)c3=O)nn2)cc1C(F)(F)F | inactive |
| O=c1c(O)cccn1CCCn1cc(-c2ccccc2)nn1 | inactive |
| O=c1c(O)cccn1CCn1cc(-c2ccccc2)nn1 | inactive |
| CN(C)c1ccc(-c2cn(CCCCCn3cccc(O)c3=O)nn2)cc1 | inactive |
| O=c1c(O)cccn1CCCCCn1cc(-c2ccccc2)nn1 | inactive |
| O=c1c(O)cccn1CCCCCCn1cc(-c2ccccc2)nn1 | inactive |
| O=c1c(O)cccn1CCCCn1cc(-c2ccccc2)nn1 | inactive |
| N#Cc1ccc(-c2cn(CCCCCn3cccc(O)c3=O)nn2)cc1 | inactive |

Next, values leading:

| inhibition | Structure (SMILES) |
| --- | --- |
| inactive | N#Cc1cccc(-c2cn(CCCCCn3cccc(O)c3=O)nn2)c1 |
| inactive | Cc1cccc(-c2cn(CCCCCn3cccc(O)c3=O)nn2)c1 |
| inactive | Cc1ccccc1-c1cn(CCCCCn2cccc(O)c2=O)nn1 |
| inactive | O=c1c(O)cccn1CCCCCCCn1cc(-c2ccccc2)nn1 |

Tested on: LNCaP
Test: cells
Settings: Homo sapiens, 72 h
Description: Cytotoxicity against androgen-dependent human LNCAP cells assessed as growth inhibition after 72 hrs by MTS assay

| Structure (SMILES) | IC50 [µM] |
| --- | --- |
| Oc1cccn(CCCCCCCn2cc(-c3ccccc3)nn2)c1=S | 11 |
| CN1CCc2c(c3ccccc3n2Cc2ccc(C(=O)NO)cc2)C1 [TUBASTATIN A] | 10.9 |
| Cc1ccccc1-c1cn(CCCCCn2cccc(O)c2=S)nn1 | 4.95 |

Molecular target: T3, Histone deacetylase 8 (Homo sapiens) (UniProt Q9BY41)
T3 sequence (whole entry): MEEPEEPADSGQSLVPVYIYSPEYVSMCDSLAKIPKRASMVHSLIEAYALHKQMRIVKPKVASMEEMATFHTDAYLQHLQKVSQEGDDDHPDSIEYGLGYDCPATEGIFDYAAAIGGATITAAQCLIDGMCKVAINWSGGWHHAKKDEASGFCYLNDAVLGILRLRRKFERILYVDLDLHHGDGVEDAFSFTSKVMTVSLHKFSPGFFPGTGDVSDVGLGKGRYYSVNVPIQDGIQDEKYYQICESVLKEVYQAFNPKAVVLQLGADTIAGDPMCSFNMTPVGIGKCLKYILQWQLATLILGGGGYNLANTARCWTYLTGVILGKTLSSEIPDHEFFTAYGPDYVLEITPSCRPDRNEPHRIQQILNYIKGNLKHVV
Test: Inhibition of HDAC8 catalytic domain (unknown origin) expressed in Escherichia coli BL21 (DE3) using GRKacFGC as substrate at 10 nM to 1 mM after 60 mins by SAMDI mass spectrometric analysis
Settings: not given

| Structure (SMILES) | inhibition |
| --- | --- |
| Cc1ccc(-c2cn(CCCCCn3cccc(O)c3=O)nn2)cc1 | inactive |
| N#Cc1ccc(-c2cn(CCCCCn3cccc(O)c3=O)nn2)cc1C(F)(F)F | inactive |
| O=c1c(O)cccn1CCCn1cc(-c2ccccc2)nn1 | inactive |
| O=c1c(O)cccn1CCn1cc(-c2ccccc2)nn1 | inactive |
| CN(C)c1ccc(-c2cn(CCCCCn3cccc(O)c3=O)nn2)cc1 | inactive |
| O=c1c(O)cccn1CCCCCn1cc(-c2ccccc2)nn1 | inactive |
| O=c1c(O)cccn1CCCCCCn1cc(-c2ccccc2)nn1 | inactive |
| O=c1c(O)cccn1CCCCn1cc(-c2ccccc2)nn1 | inactive |
| N#Cc1ccc(-c2cn(CCCCCn3cccc(O)c3=O)nn2)cc1 | inactive |

Continued, values first:

| inhibition | Structure (SMILES) |
| --- | --- |
| inactive | N#Cc1cccc(-c2cn(CCCCCn3cccc(O)c3=O)nn2)c1 |
| inactive | Cc1cccc(-c2cn(CCCCCn3cccc(O)c3=O)nn2)c1 |
| inactive | Cc1ccccc1-c1cn(CCCCCn2cccc(O)c2=O)nn1 |
| inactive | O=c1c(O)cccn1CCCCCCCn1cc(-c2ccccc2)nn1 |

Molecular target: T4, Histone deacetylase 8 (Homo sapiens, UniProt Q9BY41)
T4 sequence (Q9BY41 whole entry): T3 sequence (whole entry)
Test: Inhibition of HDAC8 catalytic domain (unknown origin) expressed in Escherichia coli BL21 (DE3) using GRKacFGC as substrate after 60 mins by SAMDI mass spectrometric analysis
Settings: not given

| Structure (SMILES) | IC50 [µM] |
| --- | --- |
| Oc1cccn(CCCCCCn2cc(-c3ccccc3)nn2)c1=S | 6.75 |
| Cc1ccc(-c2cn(CCCCCn3cccc(O)c3=S)nn2)cc1 | 2.53 |
| Oc1cccn(CCCCCCCn2cc(-c3ccccc3)nn2)c1=S | 1.38 |
| Cc1cccc(-c2cn(CCCCCn3cccc(O)c3=S)nn2)c1 | 1.66 |
| Cc1ccccc1-c1cn(CCCCCn2cccc(O)c2=S)nn1 | 2.4 |
| Oc1cccn(CCCCn2cc(-c3ccccc3)nn2)c1=S | 3.3 |

Tested on: Jurkat
Test: cells
Type: functional, cell-based
Settings: Homo sapiens, 72 h
Description: Cytotoxicity against human Jurkat cells assessed as growth inhibition after 72 hrs by MTS assay

| Structure (SMILES) | IC50 [µM] |
| --- | --- |
| Oc1cccn(CCCCCCCn2cc(-c3ccccc3)nn2)c1=S | 9.04 |
| CN1CCc2c(c3ccccc3n2Cc2ccc(C(=O)NO)cc2)C1 [TUBASTATIN A] | 3.38 |
| Cc1ccccc1-c1cn(CCCCCn2cccc(O)c2=S)nn1 | 5.18 |

Tested on: DU-145
Test: cells
Type: functional, cell-based
Settings: Homo sapiens, DU-145, 72 h
Description: Cytotoxicity against androgen-independent human DU145 cells assessed as growth inhibition after 72 hrs by MTS assay

| Structure (SMILES) | IC50 [µM] |
| --- | --- |
| Oc1cccn(CCCCCCCn2cc(-c3ccccc3)nn2)c1=S | 17.7 |
| Cc1ccccc1-c1cn(CCCCCn2cccc(O)c2=S)nn1 | 11.1 |
